This is an account of results in patent US12209154B2, “Polymer material” (MENICON CO., LTD., priority 2019, dated 2025).

The nature of this data set: Solubility of compatibilizing monomer in water at 25° C. Type of data set: physicochemical.
As for `C=C(C)C(=O)OCC(O)COC(=O)C12CC3CC(CC(C3)C1)C2` (stereo not shown) [AdaCO(OH)MA], the solubility (as a rule, the concentration that dissolves in the medium under given conditions) is < 10000 µg/mL.

`C=C(C)C(=O)OCC(O)CC(F)(F)C(F)(F)C(F)(F)C(F)(F)F` (stereo not shown) [C4F9CH2CH(OH)CHMA]: the solubility was < 10000 µg/mL.

As to `C=C(C)C(=O)OCC(O)COC(=O)C1CCCCC1` (stereo not shown) [CyCO(OH)MA], the solubility was < 10000 µg/mL.

For the compound `C=C(C)C(=O)OC12CC3CC(O)(CC(O)(C3)C1)C2` [DHADM], the solubility was < 10000 µg/mL.

For `C=C(C)C(=O)OCC(O)COCC(CC)CCCC` (stereo not shown) [EH(OH)MA], the solubility was < 10000 µg/mL.

With `C=CC(=O)OC12CC3CC(CC(O)(C3)C1)C2` [HADA], the solubility is < 10000 µg/mL.

In the case of `C=C(C)C(=O)OCC(O)COC(=O)C(O)CCCCCC` (stereo not shown) [MA(OH)OCO(OH)Hp], the solubility is < 10000 µg/mL.

Take `C=C(C)C(=O)OCC(O)COC(C)C` (stereo not shown) [iPr(OH)MA]: the solubility is < 10000 µg/mL.

On to `C=C(C)C(=O)OCC(O)COC(C)(C)C` (stereo not shown) [tBu(OH)MA], for which the solubility was < 10000 µg/mL.

With `C=C(C)C(=O)OCC(O)COC(=O)C(C)(C)C` (stereo not shown) [tBuCO(OH)MA], the solubility was < 10000 µg/mL.
